Test results published in patent publication US6214563A, “Photon reducing agents for reducing undesired light emission in assays” (Aurora Biosciences Corporation, priority 1998, dated 2001).

Assays:
[1] = Effect of 50% methanol on coumarin fluorescence and phenol red absorbance (Example 2); format: physicochemical
Experimental: To further investigate the ability of a photon reducing agent to reduce fluorescence of a solution, fluorescence of a dye in the presence of a photon reducing agent was monitored in the presence and absence of methanol.
The fluorescence from a fluorophore in the presence of a photon reducing agent (phenol red) was determined in both aqueous buffer and aqueous buffer containing 50% (vol/vol) methanol. A 10 μM solution of 6-chloro-7-hydroxy coumarin-3-carboxylate was prepared in 39 mM phosphate buffer pH 7.5 and in a 1:1 mixture of same phosphate buffer and methanol. 1% (vol/vol) of a 100 mM aqueous Phenol Red stock solution was added to the solutions.

arthritis = details: in vivo; cited from earlier work
[2] = Front face solution fluorescence of coumarin with and without phenol red (Example 1); details: 1 mM phenol red; 0.5 μM coumarin; 50% methanol/phosphate buffer pH 7.5
Experimental: To investigate the ability of a photon reducing agent to reduce fluorescence of a solution, emission of a fluorophore from a sample was monitored in the presence and absence of a photon reducing agent.
Fluorescence from a solution of a blue fluorescent dye, 6-chloro-7-hydroxy coumarin 3-carboxylate, was determined in the presence and absence of a 1 mM phenol red as the photon reducing agent. A solution of 0.5 μM 6-chloro-7-hydroxy coumarin-3-carboxylate in solvent containing 50% (vol/vol) aqueous 39 mM phosphate buffer pH 7.5 and 50% (vol/vol) methanol was prepared. After taking a front face fluorescence spectrum of this solution on a Spex Fluorolog 2, 1% (vol/vol) of a 100 mM aqueous Phenol Red stock solution was added and another spectrum taken. Front face fluorescence refers to exciting the sample at a right angle to the sample surface and collecting emitted light (for example, from the excited region or emission region) at 12.5 degrees from such angle of excitation.

[3] = Coumarin fluorescence as a function of path length (Example 6); details: 10 μM coumarin + 1 mM phenol red; FIG. 10A
Experimental: To further investigate the ability of photon reducing agents to reduce fluorescence emitted from a solution, fluorescence emitted from a solution containing a fluorophore in the presence of a photon reducing agent was monitored as a function sample thickness.
A photon reducing agent, phenol red, was tested with a fluorophore, coumarin, as a function of sample thickness (path length). The experiment was conducted using a microscope equipped with epifluorescence. The liquid samples were drawn into low fluorescence capillary tubes of fixed path length (Vitro Dynamics, Rockaway N.J.) as indicated in the graphs. The following samples were evaluated:
The samples were excited using a 405/20 filter via a 425 dichroic reflector through a 20× objective (Zeiss 20× Fluar). Emitted light was filtered through a 460/50 filter and detected by an intensified CCD camera (Stanford Photonics, Menlo Park, Calif.). The detector output was converted to a 512×512 pixel eight-bit digital image. The data reflect the average intensity within a 20×20 pixel area within the capillary. The background intensity of the field was subtracted from all values.

[4] = Absorption maxima of dyes (Table 1); format: physicochemical; details: value printed in parentheses
[5] = Residual coumarin fluorescence with non-dye quenchers and particulates (Example 3); details: ex. 395 nm, em. 460 nm; pH 7.5
T-cells = details: cited from earlier work

For `O=C(O)c1cc2cc(Cl)c(O)cc2oc1=O` [6-chloro-7-hydroxy coumarin-3-carboxylate], the “increase of fluorescence in 50% methanol buffer” value ([1]; absence of a photon reducing agent) was “about 30%”.

For `C[C@]12CCC(=O)C=C1CC[C@@H]1[C@@H]2[C@@H](O)C[C@@]2(C)[C@H]1CC[C@]2(O)C(=O)CO` [Hydrocortisone], the “efficacy in rabbit knee arthritis model” value (arthritis) is listed as “efficacious in this model”.

With `O=S1(=O)OC(c2ccc(O)cc2)(c2ccc(O)cc2)c2ccccc21` [phenol red] the “reduction of front face fluorescence” value [2] was 70 fold, the “attenuation of coumarin fluorescence” value [3] was “significantly attenuated” and the “absorption maximum, value in parentheses” value [4] was 423 nm. For the same compound, the “decrease of absorbance at the emission wavelength of the coumarin in 50% methanol buffer” value ([1]; 50% methanol buffer) was “about 20%”.

For `NCCN(CCN)CCN` [tris (2-aminoethyl) amine], the “concentration required (collisional quenchers)” value [5] was “higher than 100 mM”.

For cyclosporin A, the “prevention of T-cell proliferation in vitro” value (T-cells) is listed as “prevent proliferation of T-cells in vitro”.
